Measured values taken from ChEMBL document CHEMBL1130779, “Synthesis and pharmacological activity of the stereoisomers of GP-88, a propafenone-type modulator of multidrug resistance” (Bioorg Med Chem Lett, 1998).

tested on: CCRF-CEM/VCR-1000; test: MDR-modulating activity as a measure to inhibit P-glycoprotein (PGP) mediated transmembrane transport in human T-lymphoblast cell line CEM vcr 1000 using the daunomycin efflux assay; assay type: functional, cell-based

Row | Structure (SMILES) | EC50 [µM]
1 | C[C@H](O)c1ccccc1OC[C@@H](C)O | 0.58
2 | CCCNC[C@H](O)COc1ccccc1C(=O)CCc1ccccc1 | 0.37
3 | C[C@@H](O)COc1ccccc1[C@@H](C)O | 0.78
4 | C[C@H](O)COc1ccccc1[C@H](C)O | 1.56
5 | C[C@H](O)COc1ccccc1[C@@H](C)O | 1.4
6 | CCCNC[C@@H](O)COc1ccccc1C(=O)CCc1ccccc1 | 0.26
